Reference: patent US20040224958A1, “Pyridopyrimidinone derivatives for treatment of neurodegenerative disease” (priority 2000, published 2004)
Like-named read-outs stand apart in the source and are kept apart here.

What was measured:
cdk2/cyclinE = cdk2/cyclinE (Homo sapiens, UniProt P24941); assay: Cyclin-Dependent Kinase Assay cdk2/cyclinE
cdk2/cyclinA = cdk2/cyclinA (Homo sapiens, UniProt P24941); assay: Cyclin-Dependent Kinase Assay cdk2/cyclinA
cdk4/D = cdk4/D (Homo sapiens, UniProt P11802); assay: Cyclin-Dependent Kinase 4 (cdk4) Assay; assay type: biochemical; details: read-out: cdk4/D IC50
Sequence of cdk4/D (P11802 whole entry): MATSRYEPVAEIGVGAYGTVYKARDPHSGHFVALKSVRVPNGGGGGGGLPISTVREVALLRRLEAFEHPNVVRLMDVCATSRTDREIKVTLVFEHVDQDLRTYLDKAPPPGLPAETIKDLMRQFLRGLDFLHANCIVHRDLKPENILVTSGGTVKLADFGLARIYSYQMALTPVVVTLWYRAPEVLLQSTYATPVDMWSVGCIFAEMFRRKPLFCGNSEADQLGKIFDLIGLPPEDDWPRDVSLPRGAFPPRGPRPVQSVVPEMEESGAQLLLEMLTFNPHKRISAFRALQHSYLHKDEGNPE
Sequence of cdk4/D (P24385 whole entry, further chain): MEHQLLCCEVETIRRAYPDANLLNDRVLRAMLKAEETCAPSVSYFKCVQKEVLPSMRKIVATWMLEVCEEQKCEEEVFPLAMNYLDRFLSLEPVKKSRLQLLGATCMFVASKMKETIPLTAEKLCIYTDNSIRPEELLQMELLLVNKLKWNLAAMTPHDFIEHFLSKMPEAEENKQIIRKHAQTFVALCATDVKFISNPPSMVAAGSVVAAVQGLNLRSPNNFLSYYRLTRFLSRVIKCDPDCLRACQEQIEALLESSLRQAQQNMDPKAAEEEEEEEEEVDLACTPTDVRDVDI

cdc2/cyclinB = cdc2/cyclinB (Homo sapiens, UniProt P06493); assay: Cyclin-Dependent Kinase Assay cdc2/cyclinB
Sequence of cdc2/cyclinB (P06493 whole entry): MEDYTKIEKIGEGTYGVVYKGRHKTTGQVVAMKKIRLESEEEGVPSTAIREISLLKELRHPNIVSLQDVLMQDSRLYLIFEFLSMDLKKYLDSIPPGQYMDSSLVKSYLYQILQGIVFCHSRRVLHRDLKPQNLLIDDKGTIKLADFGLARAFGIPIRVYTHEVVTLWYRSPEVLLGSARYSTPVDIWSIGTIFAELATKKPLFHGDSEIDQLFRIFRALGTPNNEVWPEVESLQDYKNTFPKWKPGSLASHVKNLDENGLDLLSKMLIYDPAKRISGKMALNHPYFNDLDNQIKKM
Sequence of cdc2/cyclinB (P14635 whole entry, further chain): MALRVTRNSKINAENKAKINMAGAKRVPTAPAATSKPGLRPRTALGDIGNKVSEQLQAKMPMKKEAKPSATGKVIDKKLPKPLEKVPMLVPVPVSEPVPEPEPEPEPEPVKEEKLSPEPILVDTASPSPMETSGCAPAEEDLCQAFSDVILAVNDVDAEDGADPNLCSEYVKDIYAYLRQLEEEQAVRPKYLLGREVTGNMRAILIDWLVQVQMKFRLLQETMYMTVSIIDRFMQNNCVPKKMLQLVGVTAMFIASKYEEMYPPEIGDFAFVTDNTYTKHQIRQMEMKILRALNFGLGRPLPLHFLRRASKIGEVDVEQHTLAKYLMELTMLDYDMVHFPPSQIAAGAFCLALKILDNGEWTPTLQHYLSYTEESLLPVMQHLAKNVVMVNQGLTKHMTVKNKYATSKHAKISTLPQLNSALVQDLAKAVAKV

Cdk5/p25 = Cdk5/p25 (Homo sapiens, UniProt Q00535); assay: Cyclin-Dependent Kinase 5 High Throughput Screening (cdk5-HTS) Assay; assay type: biochemical; details: high throughput screen
Description: Cyclin-Dependent Kinase 5 High Throughput Screening (cdk5-HTS) Assay
Enzyme assays for IC50 determinations were performed in 96-Pierce Reacti-Bind™ White Opaque Glutatione Coated Plates (Cat. No. 15240B).
The total volume was 0.100 mL containing a final concentration of 50 mM TRIS (tris[hydroxymethyl]aminomethane) at pH 7.4, 50 mM NaCl, 10 mM MgCl2, 5 mM dithiothreitol, 20 μM ATP containing 16 μCi/mL of Redivue[y33P]ATP (Amersham Pharmacia Biotech Cat. No. AH9968), 1.0 μg/mL Cdk5/p25, 20 μg/mL GST-RbCOOH, and appropriate dilutions of a compound of the present invention. The reaction was started by adding[^33P]ATP, and the plate was shaken for 30 seconds, then incubated at room temperature for 30 minutes. The reaction was terminated by addition of 0.05 mL of 120 mM EDTA. The plate was kept at room temperature for 45 minutes to allow substrate to bind to the walls of the plate. The wells were then washed three times with 0.2 mL of 1×PBS. Once thoroughly dry, 0.140 mL of MicroScint™2O (Packard Bioscience Cat. No. 87-9081) cocktail was added to all wells. The incorporation of ^33P was determined with a beta plate counter (Packard Topcount).

IC50 (cdk2/cyclinE; cdk2/E IC50) | IC50 (cdk2/cyclinA; cdk2/A IC50) | IC50 (cdk4/D) | IC50 (cdc2/cyclinB) | IC50 (Cdk5/p25) | Compound | IC50 (cdk2/cyclinE; read-out: cdk2/E IC50) | IC50 (cdk2/cyclinA; read-out: cdk2/A IC50) | IC50 (cdc2/cyclinB; read-out: cdk1/B IC50)
63 nM | 430 nM | 680 nM | 170 nM | 50 nM | O=c1ccc2cnc(Nc3ccc(F)c(C(F)(F)F)c3)nc2n1CC1CC1 [Example 570, 8-Cyclopropylmethyl-2-(4-fluoro-3-trifluoromethyl-phenylamino)-8H-pyrido[2,3-d]pyrimidin-7-one] | – | – | –
79.7 nM | 753 nM | 350 nM | 86.7 nM | 49.2 nM | CCC(CC)n1c(=O)ccc2cnc(Nc3cccc(I)c3)nc21 [Example 490, 8-(1-Ethyl-propyl)-2-(3-iodo-phenylamino)-8H-pyrido[2,3-d]pyrimidin-7-one] | – | – | –
25 nM | 67 nM | 189 nM | 53 nM | 31 nM | CCCn1c(=O)ccc2cnc(Nc3ccc(O)c(Cl)c3)nc21 [Example 327, 2-(3-Chloro-4-hydroxy-phenylamino)-8-propyl-8H-pyrido[2,3-d]pyrimidin-7-one] | – | – | –
71.9 nM | 287 nM | 526 nM | 129 nM | 85.3 nM | CCCn1c(=O)ccc2cnc(Nc3ccc(F)c(Cl)c3)nc21 [Example 369, 2-(3-Chloro-4-fluoro-phenylamino)-8-propyl-8H-pyrido[2,3-d]pyrimidin-7-one] | – | – | –
56 nM | 480 nM | 170 nM | 120 nM | 38 nM | CCCCn1c(=O)ccc2cnc(Nc3ccc(C)c(Cl)c3)nc21 [Example 400, 8-Butyl-2-(3-chloro-4-methyl-phenylamino)-8H-pyrido[2,3-d]pyrimidin-7-one] | – | – | –
467 nM | 920 nM | 1030 nM | 218 nM | 82.8 nM | CCC(CC)n1c(=O)ccc2cnc(Nc3ccc(Cl)c(C(F)(F)F)c3)nc21 [Example 486, 2-(4-Chloro-3-trifluoromethyl-phenylamino)-8-(1-ethyl-propyl)-8H-pyrido[2,3-d]pyrimidin-7-one] | – | – | –
530 nM | 1100 nM | – | 880 nM | 200 nM | CCCn1c(=O)ccc2cnc(Nc3cc(F)cc(F)c3)nc21 [Example 349, 2-(3,5-Difluoro-phenylamino)-8-propyl-8H-pyrido[2,3-d]pyrimidin-7-one] | – | – | –
1100 nM | 2600 nM | – | 1800 nM | 160 nM | CC(C)n1c(=O)ccc2cnc(Nc3ccc(C#N)c(C#N)c3)nc21 [Example 423, 4-(8-Isopropyl-7-oxo-7,8-dihydro-pyrido[2,3-d]pyrimidin-2-ylamino)-phthalonitrile] | – | – | –
120 nM | 290 nM | – | 280 nM | 110 nM | CCCn1c(=O)ccc2cnc(Nc3ccc(F)c(F)c3)nc21 [Example 343, 2-(3,4-Difluoro-phenylamino)-8-propyl-8H-pyrido[2,3-d]pyrimidin-7-one] | – | – | –
840 nM | 1200 nM | – | 930 nM | 470 nM | CCn1c(=O)ccc2cnc(Nc3cc(F)cc(F)c3)nc21 [Example 303, 2-(3,5-Difluoro-phenylamino)-8-ethyl-8H-pyrido[2,3-d]pyrimidin-7-one] | – | – | –
320 nM | 870 nM | – | 450 nM | 200 nM | CCCCn1c(=O)ccc2cnc(Nc3cc(OC)c(OC)c(OC)c3)nc21 [Example 389, 8-Butyl-2-(3,4,5-trimethoxy-phenylamino)-8H-pyrido[2,3-d]pyrimidin-7-one] | – | – | –
680 nM | 1100 nM | – | 500 nM | 300 nM | CCCn1c(=O)ccc2cnc(Nc3ccc(O)c(CN4CCOCC4)c3)nc21 [Example 355, 2-(4-Hydroxy-3-morpholin-4-ylmethyl-phenylamino)-8-propyl-8H-pyrido[2,3-d]pyrimidin-7-one] | – | – | –

Compound | IC50 (cdk2/cyclinE; cdk2/E IC50) | IC50 (cdk2/cyclinA; cdk2/A IC50) | IC50 (cdk4/D) | IC50 (cdc2/cyclinB) | IC50 (Cdk5/p25) | IC50 (cdk2/cyclinE; read-out: cdk2/E IC50) | IC50 (cdk2/cyclinA; read-out: cdk2/A IC50) | IC50 (cdc2/cyclinB; read-out: cdk1/B IC50)
CCCn1c(=O)ccc2cnc(Nc3ccc(Cl)c(C(F)(F)F)c3)nc21 [Example 312, 2-(4-Chloro-3-trifluoromethyl-phenylamino)-8-propyl-8H-pyrido[2,3-d]pyrimidin-7-one] | – | – | – | – | 112 nM | 330 nM | 2670 nM | 268 nM
